In ChEMBL document CHEMBL3632591, “Discovery and structural diversity of the hepatitis C virus NS3/4A serine protease inhibitor series leading to clinical candidate IDX320” (Bioorg Med Chem Lett, 2015):

Assays:
Hepatitis C virus = assay: Antiviral activity against HCV genotype 1b infected in human HuH7 cells after 3 days by luciferase assay; type: functional, organism-based, Hepacivirus hominis; conditions: Huh-7, 72 h
[1] = Cytotoxicity against human HuH7 cells by colorimetric proliferation assay; type: cell-based, Huh-7
[2] = Inhibition of recombinant full length HCV genotype 1b NS3/4A protease by FRET assay; parameters: species or system Hepatitis C virus subtype 1b
[3] = Oral bioavailability in Sprague-Dawley rat at 10 mg/kg administered as single dose; type: ADME, organism-based; conditions: in vivo
[4] = Intrinsic clearance in rat liver microsomes; type: ADME; conditions: read-out: CLH
[5] = AUCt in Sprague-Dawley rat at 10 mg/kg, po administered as single dose; type: ADME, organism-based; conditions: in vivo
[6] = Intrinsic clearance in rat cryopreserved hepatocytes assessed per 10^6 cells; type: ADME, cell-based, Hepatocyte; conditions: read-out: CLH
[7] = Half life in rat liver microsomes; type: ADME
[8] = Intrinsic clearance in human liver microsomes; type: ADME; conditions: read-out: CLH
[9] = Tmax in Sprague-Dawley rat at 10 mg/kg, po administered as single dose; type: ADME, organism-based; conditions: in vivo
[10] = Tmax in Sprague-Dawley rat at 2 mg/kg, iv administered as single dose; type: ADME, organism-based; conditions: in vivo
[11] = Clearance in Sprague-Dawley rat at 2 mg/kg, iv administered as single dose; type: ADME, organism-based; conditions: in vivo
[12] = Intrinsic clearance in monkey liver microsomes; type: ADME, Macaca mulatta; conditions: rhesus monkey, read-out: CLH
[13] = Half life in Sprague-Dawley rat at 2 mg/kg, iv administered as single dose; type: ADME, organism-based; conditions: in vivo
[14] = Cmax in Sprague-Dawley rat plasma at 2 mg/kg, iv administered as single dose measured after 8 hrs; type: ADME, organism-based; parameters: dose 2 mg/kg, route intravenous
[15] = AUCt in Sprague-Dawley rat at 2 mg/kg, iv administered as single dose; type: ADME, organism-based; conditions: in vivo
[16] = AUC (infinity) in Sprague-Dawley rat at 10 mg/kg, po administered as single dose; type: ADME, organism-based; parameters: dose 10 mg/kg, time infinity, route oral; conditions: in vivo
[17] = Cmax in Sprague-Dawley rat plasma at 10 mg/kg, po administered as single dose measured after 24 hrs; type: ADME, organism-based; parameters: dose 10 mg/kg, route oral
[18] = Half life in Sprague-Dawley rat at 10 mg/kg, po administered as single dose; type: ADME, organism-based; conditions: in vivo
[19] = AUC (infinity) in Sprague-Dawley rat at 2 mg/kg, iv administered as single dose; type: ADME, organism-based; parameters: dose 2 mg/kg, route intravenous, time infinity; conditions: in vivo

Structure (SMILES) | EC50 (Hepatitis C virus) | IC50 [2] | CC50 [1] | other results
C#Cc1csc(-c2cc(O[C@H]3C[C@H]4C(=O)N(C)CCCC/C=C/[C@@H]5C[C@@]5(C(=O)NS(=O)(=O)C5(C)CC5)NC(=O)N4C3)c3ccc(OC)c(Cl)c3n2)n1 | 4 nM | 0.5 nM | 17 µM | –
COc1ccc2c(O[C@H]3C[C@H]4C(=O)N(C)CCCC/C=C/[C@@H]5C[C@@]5(C(=O)NS(=O)(=O)C5(C)CC5)NC(=O)N4C3)cc(-c3nc(C(C)C)cs3)nc2c1 | 508 nM | 1.7 nM | 42.7 µM | –
COc1ccc2c(O[C@H]3C[C@H]4C(=O)N(C)CCCC/C=C/[C@@H]5C[C@@]5(C(=O)NS(=O)(=O)C5(C)CC5)NC(=O)N4C3)cc(-n3cc(C(C)C)nn3)nc2c1Cl | 593 nM | 7.3 nM | 28.5 µM | –
COc1ccc2c(O[C@H]3C[C@H]4C(=O)N(C)CCCC/C=C/[C@@H]5C[C@@]5(C(=O)NS(=O)(=O)C5CC5)NC(=O)N4C3)cc(-c3csc(C(F)(F)F)n3)nc2c1C | 8 nM | 0.9 nM | 75 µM | microsomal CLint [4]: 23.7 µL/min/mg; hepatocyte CLint [6]: 30 µL/min/1e6 cells; half-life [7]: 59 min; microsomal CLint [8]: 27.1 µL/min/mg; microsomal CLint [12]: 39.9 µL/min/mg
COc1ccc2c(O[C@H]3C[C@H]4C(=O)N(C)CCCC/C=C/[C@@H]5C[C@@]5(C(=O)NS(=O)(=O)C5(C)CC5)NC(=O)N4C3)cc(-c3csc(C(F)(F)F)n3)nc2c1Cl | 19 nM | 1 nM | 59 µM | –
C#Cc1csc(-c2cc(O[C@H]3CCN4C(=O)N(C)CCCC/C=C/[C@@H]5C[C@@]5(C(=O)NS(=O)(=O)C5(C)CC5)NC(=O)[C@@H]4C3)c3ccc(OC)c(C)c3n2)n1 | 0.2 nM | 0.6 nM | > 75 µM | –
COc1ccc2c(O[C@H]3C[C@H]4C(=O)N(C)CCCC/C=C/[C@@H]5C[C@@]5(C(=O)NS(=O)(=O)C5CC5)NC(=O)N4C3)cc(-c3nc(C)cs3)nc2c1Cl | 22 nM | 1 nM | 75 µM | –
COc1ccc2c(OC[C@@H]3C[C@H]4C(=O)N(C)CCCC/C=C/[C@@H]5C[C@@]5(C(=O)NS(=O)(=O)C5(C)CC5)NC(=O)N34)cc(-c3nc(C(C)C)cs3)nc2c1C | – | – | – | microsomal CLint [4]: 364 µL/min/mg; half-life [7]: 3.8 min; microsomal CLint [8]: 299 µL/min/mg; microsomal CLint [12]: 500 µL/min/mg
COc1ccc2c(O[C@H]3C[C@H]4C(=O)N(C)CCCC/C=C/[C@@H]5C[C@@]5(C(=O)NS(=O)(=O)C5(C)CC5)NC(=O)N4C3)cc(-c3nc(C#N)cs3)nc2c1Cl | 89 nM | 10 nM | 75 µM | –
COc1cc2c(O[C@H]3C[C@H]4C(=O)N(C)CCCC/C=C/[C@@H]5C[C@@]5(C(=O)NS(=O)(=O)C5(C)CC5)NC(=O)N4C3)cc(-c3nc(C(C)C)cs3)nc2cc1Cl | 191 nM | 8.6 nM | > 75 µM | –
COc1ccc2c(O[C@H]3C[C@H]4C(=O)N(C)CCCC/C=C/[C@@H]5C[C@@]5(C(=O)NS(=O)(=O)C5(C)CC5)NC(=O)N4C3)cc(-c3nc(C4CCC4)cs3)nc2c1Cl | 29 nM | 1.3 nM | 75 µM | –
C#Cc1csc(-c2cc(O[C@H]3C[C@H]4C(=O)N(C)CCCC/C=C/[C@@H]5C[C@@]5(C(=O)NS(=O)(=O)C5(C)CC5)NC(=O)N4C3)c3ccc(OC)c(C)c3n2)n1 | 2.7 nM | 0.9 nM | 75 µM | –
COc1ccc2c(O[C@H]3C[C@H]4C(=O)N(C)CCCC/C=C/[C@@H]5C[C@@]5(C(=O)NS(=O)(=O)C5CC5)NC(=O)N4C3)cc(-c3nc(C4CC4)cs3)nc2c1Cl | 21 nM | 1 nM | 31.2 µM | –
COc1ccc2c(O[C@H]3C[C@H]4C(=O)N(C)CCCC/C=C/[C@@H]5C[C@@]5(C(=O)NS(=O)(=O)C5(C)CC5)NC(=O)N4C3)cc(-n3cc(C(C)C)cn3)nc2c1C | 65 nM | 0.9 nM | 9.61 µM | –
COc1ccc2c(OC[C@@H]3C[C@H]4C(=O)N(C)CCCC/C=C/[C@@H]5C[C@@]5(C(=O)NS(=O)(=O)C5(C)CC5)NC(=O)N34)cc(-c3nc(C(C)C)cs3)nc2c1Cl | – | – | – | microsomal CLint [4]: 182 µL/min/mg; half-life [7]: 8 min; microsomal CLint [8]: 472 µL/min/mg; microsomal CLint [12]: 500 µL/min/mg
COc1ccc2c(O[C@H]3C[C@H]4C(=O)N(C)CCCC/C=C/[C@@H]5C[C@@]5(C(=O)NS(=O)(=O)C5(C)CC5)NC(=O)N4C3)cc(-c3nc(C(C)C)cs3)nc2c1C | 72 nM | 1.8 nM | > 75 µM | microsomal CLint [4]: 12.6 µL/min/mg; hepatocyte CLint [6]: 12.3 µL/min/1e6 cells; half-life [7]: 112 min; microsomal CLint [8]: 9.8 µL/min/mg; microsomal CLint [12]: 37.8 µL/min/mg
COc1ccc2c(O[C@H]3C[C@H]4C(=O)N(C)CCCC/C=C/[C@@H]5C[C@@]5(C(=O)NS(=O)(=O)C5(C)CC5)NC(=O)N4C3)cc(C#N)nc2c1C | 499 nM | 6.4 nM | 55.8 µM | –

Further lines, with some results ahead:

EC50 (Hepatitis C virus) | IC50 [2] | Structure (SMILES) | CC50 [1] | other results
4 nM | 0.8 nM | C=Cc1csc(-c2cc(O[C@H]3C[C@H]4C(=O)N(C)CCCC/C=C/[C@@H]5C[C@@]5(C(=O)NS(=O)(=O)C5(C)CC5)NC(=O)N4C3)c3ccc(OC)c(Cl)c3n2)n1 | 57.1 µM | –
0.9 nM | 0.4 nM | COc1ccc2c(O[C@H]3CCN4C(=O)N(C)CCCC/C=C/[C@@H]5C[C@@]5(C(=O)NS(=O)(=O)C5CC5)NC(=O)[C@@H]4C3)cc(-c3nc(C(F)(F)F)cs3)nc2c1C | > 75 µM | –
29 nM | 0.5 nM | COc1ccc2c(O[C@H]3C[C@H]4C(=O)N(C)CCCC/C=C/[C@@H]5C[C@@]5(C(=O)NS(=O)(=O)C5(C)CC5)NC(=O)N4C3)cc(-c3nc(C(C)C)cs3)nc2c1Br | 51.2 µM | –
13 nM | 0.5 nM | COc1ccc2c(O[C@H]3C[C@H]4C(=O)N(C)CCCC/C=C/[C@@H]5C[C@@]5(C(=O)NS(=O)(=O)C5(C)CC5)NC(=O)N4C3)cc(-c3nc(C(F)(F)F)cs3)nc2c1C | 75 µM | bioavailability [3]: 18%; microsomal CLint [4]: 11.4 µL/min/mg; AUC(0-t) [5]: 2230 ng·h/mL; hepatocyte CLint [6]: 17.4 µL/min/1e6 cells; half-life [7]: 122 min; microsomal CLint [8]: 24 µL/min/mg; Tmax [9]: 1 h; Tmax [10]: 4.8 min; clearance [11]: 13.2 mL/min/kg; microsomal CLint [12]: 46.7 µL/min/mg; half-life [13]: 90 min; Cmax [14]: 2670 ng/mL; AUC(0-t) [15]: 2540 ng·h/mL; AUC(0-inf) [16]: 2380 ng·h/mL; Cmax [17]: 406 ng/mL; half-life [18]: 312 min; AUC(0-inf) [19]: 2570 ng·h/mL
2.8 nM | 0.9 nM | C#Cc1csc(-c2cc(O[C@H]3C[C@H]4C(=O)N(C)CCCC/C=C/[C@@H]5C[C@@]5(C(=O)NS(=O)(=O)C5CC5)NC(=O)N4C3)c3ccc(OC)c(C)c3n2)n1 | 14.4 µM | –
669 nM | 3.7 nM | COc1ccc2c(O[C@H]3C[C@H]4C(=O)N(C)CCCC/C=C/[C@@H]5C[C@@]5(C(=O)NS(=O)(=O)C5(C)CC5)NC(=O)N4C3)cc(-c3cc(C(C)C)on3)nc2c1Cl | 75 µM | –
85 nM | 7 nM | C#Cc1cccc(-c2cc(O[C@H]3C[C@H]4C(=O)N(C)CCCC/C=C/[C@@H]5C[C@@]5(C(=O)NS(=O)(=O)C5(C)CC5)NC(=O)N4C3)c3ccc(OC)c(C)c3n2)c1 | 75 µM | –
56 nM | 2.3 nM | COc1ccc2c(O[C@H]3C[C@H]4C(=O)N(C)CCCC/C=C/[C@@H]5C[C@@]5(C(=O)NS(=O)(=O)C5(C)CC5)NC(=O)N4C3)cc(-c3nc(C(C)C)cs3)nc2c1Cl | 48.5 µM | microsomal CLint [4]: 9.7 µL/min/mg; hepatocyte CLint [6]: 11.2 µL/min/1e6 cells; half-life [7]: 143 min; microsomal CLint [8]: 18.5 µL/min/mg; microsomal CLint [12]: 66.8 µL/min/mg
538 nM | 3.5 nM | COc1ccc2c(O[C@H]3C[C@H]4C(=O)N(C)CCCC/C=C/[C@@H]5C[C@@]5(C(=O)NS(=O)(=O)C5(C)CC5)NC(=O)N4C3)cc(-c3nc(C(C)C)cs3)nc2c1F | 33.5 µM | –
27 nM | 0.4 nM | COc1ccc2c(O[C@H]3C[C@H]4C(=O)N(C)CCCC/C=C/[C@@H]5C[C@@]5(C(=O)NS(=O)(=O)C5(C)CC5)NC(=O)N4C3)cc(-n3cc(C(F)(F)F)cn3)nc2c1Cl | 21.9 µM | –
> 750 nM | 25.7 nM | COc1ccc2c(O[C@H]3C[C@H]4C(=O)N(C)CCCC/C=C/[C@@H]5C[C@@]5(C(=O)NS(=O)(=O)C5CC5)NC(=O)N4C3)cc(-c3noc(C)n3)nc2c1C | 75 µM | –
32 nM | 0.8 nM | COc1ccc2c(O[C@H]3C[C@H]4C(=O)N(C)CCCC/C=C/[C@@H]5C[C@@]5(C(=O)NS(=O)(=O)C5(C)CC5)NC(=O)N4C3)cc(-c3csc(C(C)C)n3)nc2c1Cl | 30.2 µM | –
